Patent publication US7410986B2, “4-6-diphenyl pyridine derivatives as antiinflammatory agents” (Bayer Aktiengesellschaft, priority 2000, dated 2008)
Structures can show the parent of a compound that is named as a salt. Where two headings read alike, the source gives them in different places.

How the values were obtained:
human IKK-β = biological target: T1, human IKK-β (Homo sapiens, UniProt O14920); test: IKK-β kinase inhibitory assay; type: biochemical; conditions: compounds of about 40 to 90% purity, read-out: In vitro activity grade (invitro, IC50)
T1 construct: A cDNA fragment encoding human IKK-β open reading frame was generated by PCR; His; made in house; host or cells: Sf21 insect cells (baculovirus); the GST-IκBα substrate was made in E. coli
T1 sequence (O14920 1-756): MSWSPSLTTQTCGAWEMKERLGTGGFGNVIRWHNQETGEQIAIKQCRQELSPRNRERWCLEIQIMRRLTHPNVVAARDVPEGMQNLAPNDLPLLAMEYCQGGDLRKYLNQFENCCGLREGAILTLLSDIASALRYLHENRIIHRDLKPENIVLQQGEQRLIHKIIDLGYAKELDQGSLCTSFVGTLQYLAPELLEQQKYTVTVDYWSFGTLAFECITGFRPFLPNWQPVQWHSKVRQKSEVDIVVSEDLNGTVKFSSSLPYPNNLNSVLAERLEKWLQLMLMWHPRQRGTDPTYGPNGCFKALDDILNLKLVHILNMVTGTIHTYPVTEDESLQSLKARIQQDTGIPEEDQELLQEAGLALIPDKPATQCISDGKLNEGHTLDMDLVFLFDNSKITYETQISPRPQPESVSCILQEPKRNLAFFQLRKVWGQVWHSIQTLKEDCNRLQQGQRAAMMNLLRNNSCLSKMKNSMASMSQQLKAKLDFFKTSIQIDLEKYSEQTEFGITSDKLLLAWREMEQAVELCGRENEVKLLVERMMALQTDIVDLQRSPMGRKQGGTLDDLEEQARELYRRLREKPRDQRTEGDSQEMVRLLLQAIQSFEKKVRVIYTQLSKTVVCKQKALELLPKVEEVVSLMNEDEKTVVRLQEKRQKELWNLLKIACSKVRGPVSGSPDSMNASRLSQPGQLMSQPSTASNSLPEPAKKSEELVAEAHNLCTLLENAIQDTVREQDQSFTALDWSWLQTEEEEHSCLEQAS
Excerpt: IKK-β Kinase Inhibitory Assay.
• (1) Preparation of IKK-β Kinase Protein. • A cDNA fragment encoding human IKK-β open reading frame was generated by PCR with the use of a pair of primers designed from the published sequence (Woronicz J D et al. (1997) Science 278,866-869). A template was obtained from Quickclone cDNA (Clontech) using Elongase™ Amplification kit (Life Technologies). The DNA fragments generated by PCR were gel-purified and subcloned into pBluescript. The cDNA fragment cloned in pBluescript was inserted into pcDNA3.1/His C KpnI/NotI, and transferred into pVL1393 SmaI/XbaI (Pharmingen) to construct a baculovirus transfer vector. Then the vector, together with the linearized baculovirus (BaculoGold™, Pharmingen) was used to transfect Sf21 cells (Invitrogen, San Diego, Calif.). Generated recombinant baculovirus was cloned and amplified in Sf21 cells, grown in TNM-FH insect cell medium (Life Technologies, Inc.) supplemented with 10% FCS, […] Gentamycin, 0.1% Pluronic F-68 (Life Technologies, Inc.) as suspension culture (200 ml in 1 L Erlenmeyer flask; 27° C.; 130 rpm). Sf21 cells were infected with this amplified virus with a multiplicity of infection of 5 following standard protocols (Crossen R, Gruenwald S (1997) Baculovirus Expression Vector System Instruction Manual, Pharmingen Corporation) and harvested 48 hrs. later. The cells were lysed to obtain the produced chimeric protein of IKK-β kinase fused by histidine (His-tagged IKK-beta). • (2) The Preparation of Purified GST-IκBα Fusion Proteins • An expression vector containing the nucleotide sequence encoding fusion protein of GST with amino acid residues 1 to 54 of IκBα under the control of an IPTG-inducible promoter was constructed. The expression vector was introduced in E. coli and the transformant was cultured and lysed to obtain a GST-IκBα fusion protein. Then the resulting GST-IκBα fusion protein was purified and biotinated for kinase assay. • (3) The Measurement of IKK-β Kinase Activity • The 96-well format kinase assay of IKK-β was performed to test the inhibitory activity of the compounds of the present invention. First, 5 μl of a test compound was put in the presence of 2.5% dimethyl sulfoxide (DMSO) in each well in a U-bottomed 96-well plate (Falcon). For control wells of background (BG) and total phosphorylation (TP), 5 μl of 2.5% DMSO was put. Recombinant IKK-β (final 0.6 μg/ml) and bio-GST-IκBα (1-54) (final 0.2 μM) were diluted in 25 μl of 2×kinase buffer β (40 mM Tris-HCl, pH 7.6, 40 mM MgCl2, 40 mM β-glycerophosphate, 40 mM p-nitrophenyl-phosphate, 2 mM EDTA, 40 mM creatine phosphate, 2 mM DTT, 2 mM Na3VO4, 0.2 mg/ml BSA and 0.8 mM phenylmethylsulfonyl fluoride) and transferred to the 96-well plate. Bio-GST-IκBα (1-54) in 25 μl of 2×kinase buffer β without IKK-β was transferred to BG wells. Then 20 μl of 12.5 μM ATP, 62.5 μCi/ml [γ-^33P] ATP (Amersham Pharmacia Biotech) was added and the resulting mixture was incubated for 2 hrs. at room temperature. The kinase reactions were terminated by the addition of 150 μl of termination buffer (100 mM EDTA, 1 mg/ml BSA, 0.2 mg NaN3). One handred and fifty μl of the sample was transferred to a streptavidin-coated, white MTP (Steffens Biotechniche Analysen GmbH #08114E14. FWD) to capture the biotinylated substrates. After 1 hr. of incubation, non-bound radioactivity was eliminated by washing the wells five times with 300 μl of washing buffer including 0.9% NaCl and 0.1% (w/v) Tween-20 with the use of a MW-96 plate washer (BioTec). The bound radioactivity was determined after the addition of 170 μl MicroScint-PS scintillation cocktail (Packard) using a TopCount scintillation counter. Syk Tyrosine Kinase Inhibitory Assay for Selectivity. • (1) Preparation of Syk Protein • A cDNA fragment encoding human Syk openreading frame was cloned from total RNA of human Burkitt's lymphoma B cell lines, Raji (American Type Culture Collection), with the use of RT-PCR method. […]

[1] = tested on: RANTES production in response to TNF-α from A549 cells; test: RANTES production in response to TNF-α from A549 cells; type: cell-based, human; conditions: 100 ng/ml TNF-α, compounds of about 40 to 90% purity, read-out: Cellular activity grade (A549, IC50)

IC50 (human IKK-β) [µM] | IC50 ([1]; Homo sapiens, A549, 24 h) [µM] | IC50 ([1]; 24 hrs) [µM] | Compound
2 to 10 | > 10 |  | N#Cc1c(-c2cc(NC(=O)CCN)ccc2F)cc(-c2ccccc2O)nc1N [Example 2-12]
2 to 10 | > 10 |  | Cc1ccc(O)c(-c2cc(-c3cccc(NC(=O)CCN4CCCCC4)c3)c(C#N)c(N)n2)c1 [Example 2-07]
> 10 | 1 to 10 |  | N#Cc1c(-c2ccc(OCC3CC3)c(NC(=O)CNCC3CC3)c2)cc(-c2ccccc2O)nc1N [Example 4-34]
0.5 to 2 | 1 to 10 |  | N#Cc1c(-c2cccc(NC(=O)NCCN3CCCCC3)c2)cc(-c2ccccc2O)nc1N [Example 2-09]
< 0.5 | 1 to 10 |  | COCCNCC(=O)Nc1cc(-c2cc(-c3ccccc3O)nc(N)c2C#N)ccc1N1CCC(NC(=O)C(F)(F)F)C1 (stereo not drawn) [Example 4-37]
< 0.5 | 1 to 10 |  | N#Cc1c(-c2ccc(Cl)c(NC(=O)CCN)c2)cc(-c2ccccc2O)nc1N [Example 2-13]
0.5 to 2 | 1 to 10 |  | N#Cc1c(-c2cc(NC(=O)CCN3CCCCC3)ccc2Cl)cc(-c2ccccc2O)nc1N [Example 2-10]
0.5 to 2 |  | 1 to 10 | CN(C)c1ccc(-c2cc(-c3ccccc3O)nc(N)c2C#N)cc1NC(=O)CCN1CCCCC1 [Example 4-36]
2 to 10 | > 10 |  | Nc1cccc(-c2cc(-c3ccccc3O)nc(N)c2C(=O)O)c1 [Example 7-1, Sodium 2-amino-4-(3-aminophenyl)-6-(2-hydroxyphenyl)nicotinate]
2 to 10 | > 10 |  | N#Cc1c(-c2cccc(NC(=O)C3CCC(=O)O3)c2)cc(-c2ncccc2O)nc1N (stereo not drawn) [Example 1-20]
< 0.5 | > 10 |  | N#Cc1c(-c2cccc(NC(=O)C[C@H](N)C(=O)O)c2)cc(-c2ccccc2O)nc1N [Example 1-09]
0.5 to 2 | > 10 |  | COCCNCC(=O)Nc1cccc(-c2cc(-c3ccccc3O)nc(N)c2C#N)c1 [Example 4-24]
0.5 to 2 | 1 to 10 |  | N#Cc1c(-c2cccc(NC(=O)CN3CCCC3)c2)cc(-c2ccccc2O)nc1N [Example 4-23]
< 0.5 | 1 to 10 |  | N#Cc1c(-c2ccc(N3CCC(NC(=O)C(F)(F)F)C3)c(NC(=O)CCN3CCCCC3)c2)cc(-c2ccccc2O)nc1N (stereo not drawn) [Example 3-17]
< 0.5 | 1 to 10 |  | CN(C)c1ccc(-c2cc(-c3ccccc3O)nc(N)c2C#N)cc1NC(=O)CCN [Example 3-07]
2 to 10 |  |  | Nc1cc(-c2cccc(NC(=O)CNCC3CC3)c2)cc(-c2ccccc2O)n1 [Example 4-39]

IC50 (human IKK-β) [µM] | IC50 ([1]; Homo sapiens, A549, 24 h) [µM] | IC50 ([1]; 24 hrs) [µM] | Compound
0.5 to 2 | > 10 |  | N#Cc1c(-c2cccc(NC(=O)C(O)CCC(=O)O)c2)cc(-c2cc(F)ccc2O)nc1N (stereo not drawn) [Example 1-16]
0.5 to 2 | > 10 |  | COCC(=O)Nc1cccc(-c2cc(-c3ccccc3O)nc(N)c2C#N)c1 [Example 1-04]
2 to 10 | 1 to 10 |  | CS(=O)(=O)Nc1cccc(-c2cc(-c3ccccc3O)nc(N)c2C#N)c1 [Example 1-06]
0.5 to 2 | 1 to 10 |  | N#Cc1c(-c2ccc(N3CCC[C@H]3CO)c(NC(=O)CCN3CCCCC3)c2)cc(-c2ccccc2O)nc1N [Example 3-12]
2 to 10 | 1 to 10 |  | CN(C)c1ccc(NC(=O)CCN2CCCCC2)cc1-c1cc(-c2ccccc2O)nc(N)c1C#N [Example 3-09]
2 to 10 | 1 to 10 |  | CN1CCN(C(=O)Nc2cccc(-c3cc(-c4ccccc4O)nc(N)c3C#N)c2)CC1 [Example 2-08]
< 0.5 | 1 to 10 |  | CC(=O)Nc1ccc(-c2cc(-c3ccccc3O)nc(N)c2C#N)cc1O [Example 2-16]
2 to 10 | > 10 |  | CC(=O)N1CCN(CC(=O)Nc2cccc(-c3cc(-c4ccccc4O)nc(N)c3C#N)c2)CC1 [Example 4-05]
< 0.5 | 1 to 10 |  | N#Cc1c(-c2cccc(NC(=O)CNCC3CC3)c2)cc(-c2ccccc2O)nc1N [Example 4-18]
0.5 to 2 | 1 to 10 |  | CCN1CCN(CCC(=O)Nc2cccc(-c3cc(-c4ccccc4O)nc(N)c3C#N)c2)CC1 [Example 4-12]
< 0.5 |  |  | CC(=O)Nc1ccc(-c2cc(-c3c(O)cccc3OCC3CC3)nc(N)c2CO)cc1O [Example 8-3, N-{4-[2-amino-6-[2-(cyclopropylmethoxy)-6-hydroxyphenyl]-3-(hydroxymethyl)-4-pyridinyl]-2-hydroxyphenyl}acetamide hydrochloride]
2 to 10 | 1 to 10 |  | N#Cc1c(-c2ccc(N3CCCCC3)c(NC(=O)CCN3CCCCC3)c2)cc(-c2ccccc2O)nc1N [Example 3-10]
< 0.5 | 1 to 10 |  | N#Cc1c(-c2ccc(N3CCC(NC(=O)C(F)(F)F)C3)c(NC(=O)CNCC3CC3)c2)cc(-c2ccccc2O)nc1N (stereo not drawn) [Example 4-38]
> 10 | > 10 |  | CCCCNCC(=O)Nc1cc(-c2cc(-c3ccccc3O)nc(N)c2C#N)ccc1OCC1CC1 [Example 4-33]
2 to 10 |  |  | CCn1c(=O)oc2cc(-c3cc(-c4c(O)cccc4OCC4CC4)nc4c3COC(=O)N4)ccc21 [Example 8-2, 7-[2-(cyclopropylmethoxy)-6-hydroxyphenyl-5-(3-ethyl-2-oxo-2,3-dihydro-1,3-benzoxazol-6-yl)-1,4-dihydro-2H-pyrido[2,3-d][1,3]oxazin-2-one hydrochloride]
0.5 to 2 |  |  | CCNc1ccc(-c2cc(-c3c(O)cccc3OCC3CC3)nc(N)c2CO)cc1O [Example 8-1, 2-[6-amino-4-[4-(ethylamino)-3-hydroxyphenyl]-5-(hydroxymethyl)-2-pyridinyl]-3-(cycloproylmethoxy)phenol hydrochloride]
